According to US20100036122A1, “CLEAVAGE AGENT SELECTIVELY ACTING ON SOLUBLE ASSEMBLY OF AMYLOIDOGENIC PEPTIDE OR PROTEIN” (priority 2006, published 2010):
Entries after “also recorded” stand apart in the source; their conditions may differ.

Tests used:
Assay type in all cases: biochemical
[1] = molecular target: Aβ40 (Homo sapiens, UniProt P05067); assay: Cleavage of oligomers of Aβ40 by cleavage agent (MALDI-TOF MS, cleavage yield); details: for cleavage of Aβ40 (MALDI-TOF mass spectrum): pH 7.50, 36 hours
Sequence of Aβ40 (P05067 672-711 limits assumed): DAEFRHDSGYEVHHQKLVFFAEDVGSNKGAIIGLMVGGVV
Description: (§1) The activity of each cleavage agent was tested at 37° C. and pH 7.50 (0.050 M phosphoric acid) in Eppendorf tubes unless indicated otherwise in the Examples.
(§2) To generate the monomeric form of Aβ40 or Aβ42 in the early reaction stage, Aβ40 or Aβ42 was treated with NaOH prior to exposure to the pH 7.50 reaction medium (Fezoui, Y.; Hartley, D. M.; Harper, J. D.; Khurana, R.; Walsh, D. M.; Condron, M. M.; Selkoe, D. J.; Lansbury, P. T. Jr.; Fink, A. L.; Teplow, D. B. Amyloid 2000, 7, 166-178). The results for measurement of the fraction of Aβ40 (◯) or Aβ42 ([…]) (initial concentration: 4.0 μM) passing the membrane with cut-off MW of 10000 after incubation at pH 7.50 and 37° C. for various periods of self-assembly are illustrated in FIG. 5. According to the results, most (>80%) of Aβ42 (MW 4514) passes the filter immediately after exposure to the pH 7.50 medium. During the filtration through the membrane which takes about 10 minutes, large oligomers which cannot pass the membrane may have been generated. Therefore, it appears that most of the Aβ42 passed the membrane.
(§3) Unless specifically described in the Examples, cleavage reaction was initiated by adding Aβ40 or Aβ42 to the solution containing the cleavage agent, and the cleavage yield was estimated through the following process.
(§4) A product solution formed by the cleavage reaction was passed through the membrane with a cut-off MW of 10000 to remove aggregates of Aβ40 or Aβ42. Thereafter, the cleavage products were separated by HPLC, and the total amount of the cleavage products was estimated. The cleavage product was degraded to amino acids by alkaline hydrolysis, and then, the total amount of amino acids was estimated with fluorescamine to determine the total amount of the cleavage product. The cleavage yield was calculated by comparing the amount of the cleavage product with the initially added amount of the Aβ40 or Aβ42.
(§5) The cleavage yield measured by incubating Aβ40 or Aβ42 (4.0 μM) with various concentrations of cleavage agent A at pH 7.50 and 37° C. for 36 hours is illustrated in FIG. 8. The cleavage yields of Aβ40 or Aβ42 in the Examples are the mean value measured by using 4˜6 different reaction mixtures. The relative standard deviation (% RSD) of each cleavage yield is 5-15%.

[2] = test system: horse heart myoglobin, bovine serum γ-globulin, bovine serum albumin, human serum albumin, egg white lysozyme, egg white ovalbumin, bovine pancreas insulin; assay: Reaction with control proteins (not amyloidogenic); details: each protein 2-7 μM, cleavage agent 5.0 μM, pH 7.50, 37° C., 36 hours
[3] = test system: scrambled Aβ42; assay: Reaction with control peptides: scrambled Aβ42; details: scrambled Aβ42 4.0 μM, cleavage agent 3.0 μM, pH 7.50, 37° C., 36 hours
Description: The following control experiment was performed on cleavage agent A. The peptides or proteins used in the control experiment are not amyloidogenic. […] Two kinds of scrambled Aβ42, having the same 42 amino acids as Aβ42 in a scrambled sequence ([…], […]) (4.0 μM), were not cleaved by incubation with cleavage agent A (3.0 μM) at pH 7.50 and 37° C. for 36 hours.

[4] = molecular target: Aβ42 (Homo sapiens, UniProt P05067); assay: Cleavage of oligomers of Aβ42 by cleavage agent (MALDI-TOF MS, cleavage yield); details: for cleavage of Aβ42 (MALDI-TOF mass spectrum): cleavage agent 0.50-1.0 μM, pH 7.50, 36 hours
Sequence of Aβ42 (P05067 672-713 limits assumed): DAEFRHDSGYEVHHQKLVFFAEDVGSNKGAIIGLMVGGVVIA
Description: as §1, §2, §3, §4, §5

[5] = molecular target: T1, amylin (Am; human islet amyloid polypeptide) (Homo sapiens, UniProt P10997); assay: Cleavage of oligomers of amylin by cleavage agent (MALDI-TOF MS, cleavage yield); details: for cleavage of Am (MALDI-TOF mass spectrum of HPLC-purified products) / cleavage products of Am (MALDI-TOF MS): cleavage agent 0.38-7.1 μM (figure legends), pH 7.50, 36 hours
T1 construct: Am is a cyclic oligopeptide consisting of 37 amino acid residues
T1 sequence (P10997 34-70 limits assumed): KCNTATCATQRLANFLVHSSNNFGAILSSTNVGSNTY
Description: as §1
MALDI-TOF mass spectrum of the products purified with HPLC after incubating Am (4.0 μM) with cleavage agent A is illustrated in FIG. 12. In this Example and hereafter, MALDI-TOF mass spectra of cleavage products for Am were taken after purification with HPLC by the method described below.
Unless specifically described in the Examples, cleavage reaction of Am was initiated by adding Am to the solution containing the cleavage agent, and the cleavage yield was estimated through the following process. The product solution obtained from the cleavage reaction was passed through the membrane (cut-off MW=10000) to remove Am aggregates, and then the cleavage product was separated by HPLC. The total amount of the cleavage product was quantified. The cleavage product was converted to amino acids by alkaline hydrolysis, and the total amount of amino acids was estimated by using fluorescamine to determine the amount of the cleavage product. The cleavage yield was calculated by comparing the amount of cleavage product with that of the initial amount of Am.
The cleavage yields measured after reacting Am (4.0 μM) with various concentrations of cleavage agent A at 37° C. and pH 7.50 for 36 hours are illustrated in FIG. 13. The cleavage yields of Am in the Examples are the mean value measured by using 4[…]6 different reaction mixtures. The relative standard deviation of each cleavage yield is 5-15%.

[6] = molecular target: T2, α-synuclein (Syn) (Homo sapiens, UniProt P37840, M5L); assay: Cleavage of oligomer of α-synuclein by cleavage agent (cleavage yield); details: Syn 70 μM, pH 7.50, 37° C.; for cleavage yields of Syn: various concentrations of cleavage agent, 3 days
T2 construct: α-synuclein (Syn) is a protein consisting of 140 amino acids; histidine tag (LEHHHHHH) (C); made in house
Description: as §1
In the Examples, the slightly modified derivatives of α-synuclein (Syn) were used as a substrate to obtain α-synuclein (Syn) by gene recombination. To facilitate purification by the nickel chelate method, histidine tag (LEHHHHHH) was adhered to C-terminus. To avoid interference in the transcription, leucine instead of methionine was incorporated as the 5th amino acid residue.
Unless the context clearly indicates otherwise, Syn cleavage was initiated by adding Syn to the solution of the cleavage agent. The cleavage yield was calculated according to the following method.
A product solution formed by the cleavage reaction was passed through the membrane with the cut-off MW of 10000 to remove Syn and its assemblies. Then, the cleavage products were separated by HPLC, and the total amount of the cleavage products was estimated. The cleavage product was degraded to amino acids through alkaline hydrolysis. The total amount of the amino acids was then estimated with fluorescamine to quantify the total amount of the cleavage product. The cleavage yield was calculated by comparing the amount of the cleavage product with the initially added amount of Syn.
The cleavage yields measured by incubating Syn (70 μM) with various concentrations of cleavage agent A at pH 7.50 and 37° C. for 3 days are illustrated in FIG. 15. The cleavage yields in the Examples are the mean value measured by using 4˜6 different reaction solutions. Since the MW of Syn used in the Examples is about 15000, some of the protein fragments formed by the cleavage of Syn might have been too large to pass through the membrane with cut-off MW of 10000.

[7] = Aβ40 4.0 μM, cleavage agent 3.0 μM, 37° C.
[8] = Aβ40 4.0 μM, cleavage agent 3.0 μM, 36 hours, 37° C., pH 7.50
[9] = concluded from preincubation and filtration experiments
[10] = Aβ42 4.0 μM, cleavage agent 3.0 μM, 36 hours, 37° C., pH 7.50
[11] = Aβ42 4.0 μM, pH 7.50, 37° C., 36 hours
[12] = Am 4.0 μM, cleavage agent 1.0 μM, 36 hours, 37° C., pH 7.50

## CCCCNc1nc(NCCCN2CCNCCNCCNCC2)nc(NCc2ccc(-c3nc4ccccc4o3)cc2)n1.O.O.[Co+3] [cleavage agent A]
[1]; [7]
  cleavage of Aβ40 (MALDI-TOF mass spectrum): cleaved
[1]; [8]
  cleavage of Aβ40 after preincubation of Aβ40 for 24 hours: considerable peptide cleavage
  effect of preincubation of Aβ40 for periods longer than 24 hours on cleavage yield: reduces the cleavage yield
  yield for cleavage of Aβ40 after preincubation for 3-18 hours: does not decrease considerably
[1]; [9]
  assembly species of Aβ40 cleaved (selectivity): protofibrils or fibrils of Aβ40 are not cleaved
[2]
  cleavage of non-amyloidogenic control proteins: cleavage reaction was not detected
[3]
  cleavage of two kinds of scrambled Aβ42 (control): not cleaved
[4]; [10]
  cleavage of Aβ42 after preincubation of Aβ42 for 24 hours: little cleavage was observed
  cleavage yield after preincubation of Aβ42 for 3-6 hours compared with no preincubation: not much smaller
[4]; Aβ42 4.0 μM, 37° C.
  cleavage of Aβ42 (MALDI-TOF mass spectrum): cleaved
[4]; [11]
  concentration of cleavage agent at which cleavage reaction was detected: 100 nM
  plateau value of the yield for cleavage of Aβ42 at high concentration of the cleavage agent: about 30%
[4]; [9]
  assembly species of Aβ42 cleaved (selectivity): the oligomer is cleaved by the cleavage agent A and not the Aβ42 monomer, protofibril, or fibril
[5]; Am 4.0 μM, 37° C.
  cleavage of Am (MALDI-TOF mass spectrum of HPLC-purified products): cleaved
  cleavage products of Am (MALDI-TOF MS): Am20-37 and Am19-37
[6]
  cleavage yields of Syn: fairly large

## CC(Nc1nc(NCc2ccc(Cl)cc2)nc(OCCN(C)c2ccc(-c3nc4ccccc4s3)cc2)n1)C(=O)NCCCN1CCNCCNCCNCC1.O.O.[Co+3] (centres unmarked) [cleavage agent B]
[1]; [7]
  cleavage of Aβ40 (MALDI-TOF mass spectrum): cleaved
[1]; Aβ40 4.0 μM, pH 7.50, 37° C., 36 hours
  plateau value of the yield for cleavage of Aβ40 at high concentration of the cleavage agent: about 12%
[2]
  cleavage of non-amyloidogenic control proteins: the same as those obtained in Example 1
[3]
  cleavage of two kinds of scrambled Aβ42 (control): the same as those obtained in Example 1
[4]; Aβ42 4.0 μM, 37° C.
  cleavage of Aβ42 (MALDI-TOF mass spectrum): cleaved
[4]; [11]
  concentration of cleavage agent at which cleavage reaction was detected: 30 to 50 nM
  plateau value of the yield for cleavage of Aβ42 at high concentration of the cleavage agent: ~17%
[5]; Am 4.0 μM, cleavage agent 1.0 μM, 37° C., pH 7.50
  cleavage yield against reaction time: does not increase even if the reaction period is increase beyond 36 hours
[5]; [12]
  amounts of cleavage products after preincubation of Am for 6 hours compared with no preincubation: not much smaller
  cleavage of Am after preincubation of Am for 36 hours or longer: little cleavage reaction occurred
[5]; Am 4.0 μM, 37° C.
  cleavage of Am (MALDI-TOF mass spectrum of HPLC-purified products): cleaved
  cleavage products of Am (MALDI-TOF MS): Am20-37, Am19-37 and Am17-37
[5]; [9]
  assembly species of Am cleaved (selectivity): oligomers of Am instead of the monomer, protofibrils, and fibrils of Am are cleaved
[6]
  cleavage yields of Syn: fairly large

## Cc1ccccc1CNc1nc(NCCC(=O)NCCCN2CCNCCNCCNCC2)nc(OCCN(C)c2ccc(-c3nc4ccccc4s3)cc2)n1.O.O.[Co+3] [cleavage agent D]
[1]; Aβ40 4.0 μM, cleavage agent 0.1-10 μM, pH 7.50, 37° C., 36 hours
  cleavage of Aβ40 (MALDI-TOF MS data): did not reveal any evidence of cleavage
[2]
  cleavage of non-amyloidogenic control proteins: the same as those obtained in Example 1
[3]
  cleavage of two kinds of scrambled Aβ42 (control): the same as those obtained in Example 1
[4]; Aβ42 4.0 μM, 37° C.
  cleavage of Aβ42 (MALDI-TOF mass spectrum): cleaved
[4]; [11]
  concentration of cleavage agent at which cleavage reaction was detected: 50 to 100 nM
  plateau value of the yield for cleavage of Aβ42 at high concentration of the cleavage agent: about 12%
[5]; Am 4.0 μM, 37° C.
  cleavage of Am (MALDI-TOF mass spectrum of HPLC-purified products): cleaved
  cleavage products of Am (MALDI-TOF MS): Am20-37 and Am19-37

## CCCCNc1nc(NCCCN2CCNCCNCCNCC2)nc(OCCN(C)c2ccc(-c3nc4ccccc4s3)cc2)n1.O.O.[Co+3] [cleavage agent E]
[2]
  cleavage of non-amyloidogenic control proteins: the same as those obtained in Example 1
[3]
  cleavage of two kinds of scrambled Aβ42 (control): the same as those obtained in Example 1
[5]; Am 4.0 μM, 37° C.
  cleavage of Am (MALDI-TOF mass spectrum of HPLC-purified products): cleaved
  cleavage products of Am (MALDI-TOF MS): Am17-37, Am16-37 and Am13-37

## CC(C)CC(Nc1nc(OCCN(C)c2ccc(-c3nc4ccccc4s3)cc2)nc(N2CCCCC2)n1)C(=O)NCCCN1CCNCCNCCNCC1.O.O.[Co+3] (centres unmarked) [cleavage agent F]
[2]
  cleavage of non-amyloidogenic control proteins: the same as those obtained in Example 1
[3]
  cleavage of two kinds of scrambled Aβ42 (control): the same as those obtained in Example 1
[5]; Am 4.0 μM, 37° C.
  cleavage of Am (MALDI-TOF mass spectrum of HPLC-purified products): cleaved
  cleavage products of Am (MALDI-TOF MS): Am19-37 and Am17-37; also recorded: Am20-37, Am17-37 and Am14-37

## Co^III complex of cyclen [reference compound]
[1]; complex 20 μM, Aβ40 4.0 μM, pH 7.50, 37° C., 36 hours
  cleavage of Aβ40 by complex lacking the recognition site: No peptide cleavage was observed
[4]; complex 20 μM, Aβ42 4.0 μM, pH 7.50, 37° C., 36 hours
  cleavage of Aβ42 by complex lacking the recognition site: No peptide cleavage was observed
[5]; complex 20 μM, Am 4.0 μM, pH 7.50, 37° C., 36 hours
  cleavage of Am by complex lacking the recognition site: No peptide cleavage was observed
[6]; complex 20 μM, 36 hours
  cleavage of Syn by complex lacking the recognition site: No peptide cleavage was observed
